According to patent US20250313577A1, “TRICYCLIC PYRIDONES AND PYRIMIDONES” (ERASCA, INC, priority 2022, published 2025):

What follows are compounds tested against T1, KRAS G12C (Homo sapiens, UniProt P01116, G12C) (assay: phospho-ERK HTRF assay in Ras Initiative (RI) KRAS G12C cells). Conditions: phospho-ERK1/2 HTRF, 11-point dose response from 2,500 nM, treatment for either 4 hours or 16 hours, read-out: pERK (RI).
T1 construct: expressed in transfected cells; host or cells: Ras Initiative (RI) KRAS G12C cells
T1 sequence (P01116 1-188 isoform P01116-2 G12C): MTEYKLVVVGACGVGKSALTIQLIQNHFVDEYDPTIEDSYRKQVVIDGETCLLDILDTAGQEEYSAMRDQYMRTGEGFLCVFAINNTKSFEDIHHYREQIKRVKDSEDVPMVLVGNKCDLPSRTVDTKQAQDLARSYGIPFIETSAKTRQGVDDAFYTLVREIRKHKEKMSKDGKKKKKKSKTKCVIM
Type: cell-based
Protocol: Inhibition of KRAS G12C-Mediates Phospho-ERK1/2 Inhibition by Compounds of Formula I
This Example illustrates that various compounds of the present disclosure inhibit KRAS G12C thereby mediating the downstream inhibition of phospho-ERK1/2.
KRAS G12C mutant cell lines, NCI H358 (ATCC, CRL-5807), and Ras Initiative (R1) KRAS G12C were cultured according to published protocols and maintained at 37° C. in 5% CO2. The phospho-ERK HTRF assay was executed following provider's protocol (CisBio #64AERPEH). NCI-H358 or RI KRAS G12C cells were plated at a density of 50,000 cells per well in a 96-well plate (Corning #3903) in respective medias (for NCI-H358, RPMI+10% FBS+1% Pen/Strep, and for RI KRAS G12C, DMEM+10% FBS+1% Pen/Strep+4 ug/ml Blasticidin) and maintained at 37° C. in 5% CO2. Cells were allowed to adhere overnight and treated the following day with a Tecan D300e Digital Dispenser (Tecan Group Ltd., Switzerland) using an 11-point dose response starting at 2,500 nM of exemplified compounds followed by sequential 1:3 dilutions for either 4 hours or 16 hours. Following compound treatment, the cells were washed once with ice-cold PBS. Cells were lysed by adding 50 μl of lysis buffer (1×) supplemented with 1× Pierce Halt Protease and Phosphatase inhibitor and incubated for 30 minutes at 4° C. with shaking. After lysis, 16 μL of cell lysate from the 96-well cell-culture plate was transferred to a 384-well plate (Perkin Elmer #6007290). The premixed antibody solution was prepared by mixing (vol/vol) advanced phospho-ERK1/2 d2 antibody and advanced phospho-ERK1/2 Eu Cryptate antibody. The premixed antibody solution ([…]) was added to the detection plate containing cell lysate. The detection plate was incubated overnight at 4° C., the HTRF signal was read the next day by using either a Spectramax M5 or Spectramax i3 microplate reader (Molecular Devices, San Jose, CA, USA), and data was processed according to manufacturer's protocol.
Compounds prepared according to the preceding procedures and characterized for inhibition of p-ERK according to the protocol provided herein are summarized in Table 3: […]

IC50 [nM]	SMILES
0.5 to 2	C=CC(=O)N1[C@H](C)CN(c2nc(=O)n3c4c(c(-c5cc(Cl)c(F)cc5F)c(C(F)(F)F)cc24)SC[C@@H](c2ccncc2)C3)C[C@@H]1C (atropisomer, axis not shown) [Example 100B, (3S)-8-((3S,5R)-4-acryloyl-3,5-dimethylpiperazin-1-yl)-11-(5-chloro-2,4-difluorophenyl)-3-(pyridin-4-yl)-10-(trifluoromethyl)-3,4-dihydro-2H,6H-[1,4]thiazepino[2,3,4-ij]quinazolin-6-one]
0.5 to 2	C=CC(=O)N1[C@H](C)CN(c2nc(=O)n3c4c(c(-c5cc(Cl)c(F)cc5F)c(C(F)(F)F)cc24)SC[C@@H](c2cccnc2)C3)C[C@@H]1C (atropisomer, axis not shown) [Example 104A, (3S,11R)-8-((3S,5R)-4-acryloyl-3,5-dimethylpiperazin-1-yl)-11-(5-chloro-2,4-difluorophenyl)-3-(pyridin-3-yl)-10-(trifluoromethyl)-3,4-dihydro-2H,6H-[1,4]thiazepino[2,3,4-ij]quinazolin-6-one]
0.5 to 2	C=CC(=O)N1[C@H](C)CN(c2nc(=O)n3c4c(c(-c5cc(Br)c(F)cc5F)c(C(F)(F)F)cc24)SC[C@@H](c2cccnc2)C3)C[C@@H]1C (atropisomer, axis not shown) [Example 108A, (3S,11R)-8-((3S,5R)-4-acryloyl-3,5-dimethylpiperazin-1-yl)-11-(5-bromo-2,4-difluorophenyl)-3-(pyridin-3-yl)-10-(trifluoromethyl)-3,4-dihydro-2H,6H-[1,4]thiazepino[2,3,4-ij]quinazolin-6-one]
> 250	C=CC(=O)N1[C@H](C)CN(c2nc(=O)n3c4c(c(-c5ccc(F)cc5F)c(C(F)(F)F)cc24)SC[C@H](c2ccc(F)cc2)C3)C[C@@H]1C (atropisomer, axis not shown) [Example 118]
2 to 20	C=CC(=O)N1[C@H](C)CN(c2nc(=O)n3c4c(c(-c5cc(Cl)c(F)cc5F)c(C(F)(F)F)cc24)SC[C@@H](c2ccncc2)C3)C[C@@H]1C (single isomer, unassigned) [Example 100A]
2 to 20	C=CC(=O)N1[C@H](C)CN(c2nc(=O)n3c4c(c(-c5cc(Br)c(F)cc5F)c(C(F)(F)F)cc24)SC[C@@H](c2ccccn2)C3)C[C@@H]1C (single isomer, unassigned) [Example 107A]
0.5 to 2	C=CC(=O)N1[C@H](C)CN(c2nc(=O)n3c4c(c(-c5cc(Br)c(F)cc5F)c(C(F)(F)F)cc24)SC[C@@H](c2ccccn2)C3)C[C@@H]1C (single isomer, unassigned) [Example 107B]
2 to 20	C=CC(=O)N1[C@H](C)CN(c2nc(=O)n3c4c(c(-c5cc(Cl)c(F)cc5F)c(C(F)(F)F)cc24)SC[C@@H](c2ccncc2F)C3)C[C@@H]1C (single isomer, unassigned) [Example 112A]
0.5 to 2	C=CC(=O)N1[C@H](C)CN(c2nc(=O)n3c4c(c(-c5cc(Cl)c(F)cc5F)c(C(F)(F)F)cc24)SC[C@@H](c2ccncc2F)C3)C[C@@H]1C (single isomer, unassigned) [Example 112B]
0.5 to 2	C=CC(=O)N1[C@H](C)CN(c2nc(=O)n3c4c(c(-c5cc(Br)c(F)cc5F)c(C(F)(F)F)cc24)SC[C@@H](c2ccncc2)C3)C[C@@H]1C [Example 102, (3S)-8-((3S,5R)-4-acryloyl-3,5-dimethylpiperazin-1-yl)-11-(5-bromo-2,4-difluorophenyl)-3-(pyridin-4-yl)-10-(trifluoromethyl)-3,4-dihydro-2H,6H-[1,4]thiazepino[2,3,4-ij]quinazolin-6-one]
> 250	C=CC(=O)N1[C@H](C)CN(c2nc(=O)n3c4c(c(-c5cc(Br)c(F)cc5F)c(C(F)(F)F)cc24)SC[C@H](c2ccccn2)C3)C[C@@H]1C [Example 103]
2 to 20	C=CC(=O)N1[C@H](C)CN(c2nc(=O)n3c4c(c(-c5cc(Cl)c(F)cc5F)c(C(F)(F)F)cc24)SC[C@@H](c2cccnc2)C3)C[C@@H]1C [Example 104B, (3S,11S)-8-((3S,5R)-4-acryloyl-3,5-dimethylpiperazin-1-yl)-11-(5-chloro-2,4-difluorophenyl)-3-(pyridin-3-yl)-10-(trifluoromethyl)-3,4-dihydro-2H,6H-[1,4]thiazepino[2,3,4-ij]quinazolin-6-one]
0.5 to 2	C=CC(=O)N1[C@H](C)CN(c2nc(=O)n3c4c(c(-c5ccc(F)cc5)c(C(F)(F)F)cc24)SC[C@@H](c2ccccn2)C3)C[C@@H]1C [Example 106, (R)-8-((3S,5R)-4-acryloyl-3,5-dimethylpiperazin-1-yl)-11-(4-fluorophenyl)-3-(pyridin-2-yl)-10-(trifluoromethyl)-3,4-dihydro-2H,6H-[1,4]thiazepino[2,3,4-ij]quinazolin-6-one]
2 to 20	C=CC(=O)N1[C@H](C)CN(c2nc(=O)n3c4c(c(-c5cc(Br)c(F)cc5F)c(C(F)(F)F)cc24)SC[C@@H](c2cccnc2)C3)C[C@@H]1C [Example 108B, (3S,11S)-8-((3S,5R)-4-acryloyl-3,5-dimethylpiperazin-1-yl)-11-(5-bromo-2,4-difluorophenyl)-3-(pyridin-3-yl)-10-(trifluoromethyl)-3,4-dihydro-2H,6H-[1,4]thiazepino[2,3,4-ij]quinazolin-6-one]
2 to 20	C=CC(=O)N1[C@H](C)CN(c2nc(=O)n3c4c(c(-c5cc(Cl)c(F)cc5F)c(C(F)(F)F)cc24)SC[C@@H](c2cncc(F)c2)C3)C[C@@H]1C [Example 109, (3S)-8-((3S,5R)-4-acryloyl-3,5-dimethylpiperazin-1-yl)-11-(5-chloro-2,4-difluorophenyl)-3-(5-fluoropyridin-3-yl)-10-(trifluoromethyl)-3,4-dihydro-2H,6H-[1,4]thiazepino[2,3,4-ij]quinazolin-6-one]
20 to 250	C=CC(=O)N1[C@H](C)CN(c2nc(=O)n3c4c(c(-c5cc(Cl)c(F)cc5F)c(C(F)(F)F)cc24)SC[C@H](c2ccncc2F)C3)C[C@@H]1C [Example 111]
0.5 to 2	C=CC(=O)N1[C@H](C)CN(c2nc(=O)n3c4c(c(-c5ccc(F)cc5)c(C(F)(F)F)cc24)SC[C@@H](c2ccncc2)C3)C[C@@H]1C [Example 113, (S)-8-((3S,5R)-4-acryloyl-3,5-dimethylpiperazin-1-yl)-11-(4-fluorophenyl)-3-(pyridin-4-yl)-10-(trifluoromethyl)-3,4-dihydro-2H,6H-[1,4]thiazepino[2,3,4-ij]quinazolin-6-one]
0.5 to 2	C=CC(=O)N1[C@H](C)CN(c2nc(=O)n3c4c(c(-c5ccc(F)cc5)c(C(F)(F)F)cc24)SC[C@@H](c2ccncc2F)C3)C[C@@H]1C [Example 114, (S)-8-((3S,5R)-4-acryloyl-3,5-dimethylpiperazin-1-yl)-11-(4-fluorophenyl)-3-(3-fluoropyridin-4-yl)-10-(trifluoromethyl)-3,4-dihydro-2H,6H-[1,4]thiazepino[2,3,4-ij]quinazolin-6-one]
20 to 250	C=CC(=O)N1[C@H](C)CN(c2nc(=O)n3c4c(c(-c5ccc(F)cc5)c(C(F)(F)F)cc24)SCC(c2ccc(F)cc2)C3)C[C@@H]1C (stereo partly drawn) [Example 115, 8-((3S,5R)-4-acryloyl-3,5-dimethylpiperazin-1-yl)-3,11-bis(4-fluorophenyl)-10-(trifluoromethyl)-3,4-dihydro-2H,6H-[1,4]thiazepino[2,3,4-ij]quinazolin-6-one]
2 to 20	C=CC(=O)N1[C@H](C)CN(c2nc(=O)n3c4c(c(-c5ccc(F)cc5)c(C(F)(F)F)cc24)SCC(c2ccc(F)cc2)C3)C[C@@H]1C (some centres unmarked) [Example 116]
